# Data taken from US8729074B2, “Inhibitors of PI3 kinase” (Amgen Inc., priority 2009, dated 2014).
# System: phosphorylation of Serine 473 in Akt in HCT 116 cells
# Experiment: Cell-based phospho-Akt Ser473 assay (HCT 116 cell)
# Conditions: Homo sapiens; pAkt Ser473, HCT 116 cells, compound 2 hours, IGF-1 stimulation; average if run more than once; read-out: HCT116 Cell IC50
# Description: Cell-Based Phospho-Akt Ser473Assay (HCT 116 Cell)
# This assay determines the ability of a compound to inhibit the phosphorylation of Serine 473 in Akt using a MSD based sandwich immunoassay (Meso Scale Detection, Meso Scale Discovery (MSD), Gaithersburg, Md.). HCT 116 human colon carcinoma cell lines can be grown in McCoy's 5A growth medium (GIBCO, Carlsbad, Calif.) containing 10% FBS (GIBCO, Carlsbad, Calif.) and X1 Penicillin-streptomycin-glutamine (GIBCO, Carlsbad, Calif.). Prior to the assay, cells can be detached from the culture flask with trypsin, and re-suspended in complete media to give a final concentration of 1.6×10^5 cells per mL. Aliquots (100 μl) of the HCT116 cell suspension can be seeded into each well of a 96 well tissue culture plate to give a final density of 16,000 cells per well. Cells can then be incubated overnight at 37° C.
# The following day the cells can be treated with serially diluted test compounds and incubated for 2 hours at 37° C. The culture media on the HCT 116 cells can be replaced with 189 μL McCoys media, supplemented with 0.1% BSA (ICN Biomedicals, Inc., Costa Mesa, Calif.). Compounds can be prepared as either 10 mM or 0.5 mM stock solutions in DMSO, and serially diluted 3 fold in a 10-point dose-response curve to give final concentrations that are 200-fold greater than the desired final test concentration. […]
# 25 μL Cell lysate can then be transferred to pre-blocked MSD assay plates pre-coated with a capture antibody specific for Akt, and the plates can be incubated for 2 hours at room temperature. […] An aliquot of 150 μL of diluted MSD read buffer can then be applied to each well, and the electrochemiluminescent signal can be measured using a MSD SECTOR™ plate reader (Meso Scale Discovery, Gaithersburg, Md.). This instrument measures the intensity of emitted light to determine a quantitative measure of phosphorylated Akt in each well. The dose-response data obtained with each compound can be analyzed and the IC50 inhibition of Akt phosphorylation at Ser473 can be calculated. […]
row,Compound,IC50
1,"O=S(=O)(Nc1cc(-c2cnc3ccc(Cl)nn23)cnc1Cl)c1ccc(F)cc1 [Example 25, N-(2-Chloro-5-(6-chloroimidazo[1,2-b]pyridazin-3-yl)pyridin-3-yl)-4-fluorobenzenesulfonamide]",564 nM
2,"O=S(=O)(Nc1cc(-c2cnc3ccccn23)cnc1Cl)c1ccc(F)cc1 [Example 3, N-(2-Chloro-5-imidazo[1,2-a]pyridin-3-yl-3-pyridinyl)-4-fluorobenzenesulfonamide]",352 nM
3,"Cc1ccn2c(-c3cnc(Cl)c(NS(=O)(=O)c4ccc(F)cc4)c3)cnc2c1 [Example 4, N-(2-Chloro-5-(7-methylimidazo[1,2-a]pyridin-3-yl)-3-pyridinyl)-4-fluorobenzenesulfonamide]",180 nM
